The values that follow come from PubChem BioAssay AID334 (DTP/NCI, 2004).

“And” between values parts separate entries of the source, which are not always exact repeats. Identical values can stand only once. Inconclusive results and toxic doses are left out.

The assay concerns CD2F1 mice, intracerebral P388 leukemia, median survival T/C%. Nature of the assay: NCI In Vivo Anticancer Drug Screen. Data for tumor model P388 Leukemia (intracerebral) in CD2F1 (CDF1) mice. The following applies: endpoint: median survival time, higher = longer survival. The procedure: The antitumor activity of compounds was measured in mice bearing transplantable tumors. Survival or tumor size were measured and the results are expressed as the measurement made in the treated group (T) divided by the measurement made in the vehicle treated control group (C). The tumor model used in this assay is P388 Leukemia (intracerebral) in CD2F1 (CDF1) mice

Setting [1] is: dose: 8.0 mg/kg/injection, schedule: Q01DX009 (ip), vehicle: Klucel (hydroxypropylcellulose) (HPC).
Setting [2] is: dose: 8.0 mg/kg/injection, schedule: Q01DX009 (ip), vehicle: saline with Tween-80.
Where [3] appears, read: dose: 16.0 mg/kg/injection, schedule: Q01DX009 (ip), vehicle: Klucel (hydroxypropylcellulose) (HPC).
[4] abbreviates: dose: 16.0 mg/kg/injection, schedule: Q01DX009 (ip), vehicle: saline with Tween-80.
Where [5] appears, read: dose: 32.0 mg/kg/injection, schedule: Q01DX009 (ip), vehicle: Klucel (hydroxypropylcellulose) (HPC).
Setting [6] is: dose: 32.0 mg/kg/injection, schedule: Q01DX009 (ip), vehicle: saline with Tween-80.
[7] abbreviates: dose: 64.0 mg/kg/injection, schedule: Q01DX009 (ip), vehicle: Klucel (hydroxypropylcellulose) (HPC).
Setting [8] is: dose: 64.0 mg/kg/injection, schedule: Q01DX009 (ip), vehicle: saline with Tween-80.
The mark [9] stands for this setting: dose: 128.0 mg/kg/injection, schedule: Q01DX009 (ip), vehicle: Klucel (hydroxypropylcellulose) (HPC).
Where [10] appears, read: dose: 128.0 mg/kg/injection, schedule: Q01DX009 (ip), vehicle: saline with Tween-80.
The mark [11] stands for this setting: dose: 256.0 mg/kg/injection, schedule: Q01DX009 (ip), vehicle: saline with Tween-80.
[12] abbreviates: dose: 16.0 mg/kg/injection, schedule: Q01DX005 (ip), vehicle: saline.
The mark [13] stands for this setting: dose: 32.0 mg/kg/injection, schedule: Q01DX005 (ip), vehicle: saline.
[14] abbreviates: dose: 25.0 mg/kg/injection, schedule: Q04DX003 (ip), vehicle: saline.
[15] abbreviates: dose: 50.0 mg/kg/injection, schedule: Q04DX003 (ip), vehicle: saline.
Where [16] appears, read: dose: 256.0 mg/kg/injection, schedule: Q01DX009 (ip), vehicle: Klucel (hydroxypropylcellulose) (HPC).
[17] abbreviates: dose: 512.0 mg/kg/injection, schedule: Q01DX009 (ip), vehicle: Klucel (hydroxypropylcellulose) (HPC).

Take `CCN(C)N=Nc1ccc(C(N)=O)cc1`: the T/C is 101 % of control (dose: 25.0 mg/kg/injection, schedule: Q01DX009 (ip), vehicle: Klucel (hydroxypropylcellulose) (HPC)) and 154 % of control (dose: 100.0 mg/kg/injection, schedule: Q01DX009 (ip), vehicle: Klucel (hydroxypropylcellulose) (HPC)).
Consider `C[C@]12C=CC(=O)C=C1CC[C@@H]1[C@@H]2CC[C@]2(C)OC(=O)CC[C@@H]12`, for which the T/C under setting [1] is 105 % of control and 111 % of control; the T/C under setting [2] was 95 % of control and 105 % of control; the T/C under setting [3] was 100 % of control and 103 % of control; the T/C under setting [4] was 104 % of control and 105 % of control; the T/C under setting [5] is 114 % of control and 102 % of control; the T/C under setting [6] was 97 % of control and 104 % of control. Besides, the T/C reads like this: under setting [7], 100 % of control and 105 % of control; under setting [8], 97 % of control; under setting [9], 91 % of control and 111 % of control; under setting [10], 104 % of control and 112 % of control; under setting [11], 121 % of control and 94 % of control.
Take `Nc1nc(F)nc2c1ncn2C1OC(COP(=O)(O)O)C(O)C1O` (stereo not drawn): the T/C (dose: 60.0 mg/kg/injection, schedule: Q01DX009 (ip), vehicle: saline) is 102 % of control; the T/C (dose: 90.0 mg/kg/injection, schedule: Q01DX009 (ip), vehicle: saline) was 111 % of control; the T/C (dose: 134.0 mg/kg/injection, schedule: Q01DX009 (ip), vehicle: saline) was 119 % of control; the T/C (dose: 200.0 mg/kg/injection, schedule: Q01DX009 (ip), vehicle: saline) was 205 % of control.
Turning to `F`, the T/C is 97 % of control and 101 % of control under setting [12]; 98 % of control and 99 % of control under setting [13].
As for `COc1cc(C[C@H]2c3cc(OC)c(OC)cc3CCN2C)c(Oc2cc3c(cc2OC)-c2c(OC)c(OC)cc4c2[C@H](C3)N(C)CC4)cc1OC`, the T/C (dose: 50.0 mg/kg/injection, schedule: Q01DX005 (ip), vehicle: Klucel (hydroxypropylcellulose) (HPC)) was 102 % of control and 106 % of control and 107 % of control; the T/C (dose: 200.0 mg/kg/injection, schedule: Q01DX005 (ip), vehicle: Klucel (hydroxypropylcellulose) (HPC)) is 96 % of control and 101 % of control and 104 % of control.
Take `CCN(CC)c1ccc2cc3ccc(=[N+](CC)CC)cc-3oc2c1`: the T/C reads like this: (dose: 4.0 mg/kg/injection, schedule: Q01DX005 (ip), vehicle: suspension in saline) 102 % of control; (dose: 8.0 mg/kg/injection, schedule: Q01DX005 (ip), vehicle: suspension in saline) 103 % of control.
Consider `Cc1cc(NC(=O)NCc2ccc(N3C(N)=NC(N)=NC3(C)C)cc2)ccc1S(=O)(=O)F`, for which the T/C runs as follows: (dose: 12.5 mg/kg/injection, schedule: Q01DX009 (ip), vehicle: saline with Tween-80) 105 % of control; (dose: 25.0 mg/kg/injection, schedule: Q01DX009 (ip), vehicle: saline with Tween-80) 105 % of control; (dose: 25.0 mg/kg/injection, schedule: Q04DX003 (ip), vehicle: saline with Tween-80) 111 % of control; under setting [14], 105 % of control; (dose: 50.0 mg/kg/injection, schedule: Q01DX009 (ip), vehicle: saline with Tween-80) 97 % of control; (dose: 50.0 mg/kg/injection, schedule: Q04DX003 (ip), vehicle: saline with Tween-80) 101 % of control. Also, the T/C by setting is: under setting [15], 100 % of control; (dose: 100.0 mg/kg/injection, schedule: Q04DX003 (ip), vehicle: saline with Tween-80) 90 % of control; (dose: 100.0 mg/kg/injection, schedule: Q04DX003 (ip), vehicle: saline) 111 % of control; (dose: 200.0 mg/kg/injection, schedule: Q04DX003 (ip), vehicle: saline with Tween-80) 116 % of control; (dose: 200.0 mg/kg/injection, schedule: Q04DX003 (ip), vehicle: saline) 111 % of control; (dose: 400.0 mg/kg/injection, schedule: Q04DX003 (ip), vehicle: saline) 105 % of control.
With `CCCCCC(=O)NC(Cc1ccc(N(CCCl)CCCl)cc1)C(=O)O` (stereo not drawn), the T/C by setting is: (dose: 1.3 mg/kg/injection, schedule: Q03HX008 (ip), vehicle: saline) 94 % of control; (dose: 2.6 mg/kg/injection, schedule: Q03HX008 (ip), vehicle: saline) 105 % of control; (dose: 5.3 mg/kg/injection, schedule: Q03HX008 (ip), vehicle: saline) 105 % of control; (dose: 10.6 mg/kg/injection, schedule: Q03HX008 (ip), vehicle: saline) 100 % of control; (dose: 21.2 mg/kg/injection, schedule: Q03HX008 (ip), vehicle: saline) 115 % of control.
On to `CC1(C)N=C(N)N=C(N)N1c1ccc(OCCOc2ccc(S(=O)(=O)F)cc2)c(Cl)c1`, for which the T/C (dose: 12.5 mg/kg/injection, schedule: Q04DX003 (ip), vehicle: saline) was 116 % of control; the T/C under setting [14] was 100 % of control; the T/C under setting [15] is 94 % of control.
With `C[C@]12C=CC(=O)C=C1CC[C@@H]1[C@@H]2C(=O)C[C@@]2(C)[C@H]1CC[C@]2(O)C(=O)CO`, the T/C by setting is: under setting [1], 95 % of control and 99 % of control; under setting [3], 100 % of control and 104 % of control; under setting [5], 98 % of control and 102 % of control; under setting [7], 99 % of control and 104 % of control; under setting [9], 95 % of control and 102 % of control; under setting [16], 102 % of control and 104 % of control. Besides, the T/C under setting [17] is 95 % of control and 99 % of control.
In the case of `CCC(=O)O[C@H]1CC[C@H]2[C@@H]3CC[C@H]4CC(=O)[C@H](C)C[C@]4(C)[C@H]3CC[C@]12C`, the T/C is 121 % of control and 105 % of control under setting [1]; 100 % of control and 106 % of control under setting [2]; 94 % of control and 103 % of control under setting [3]; 100 % of control and 106 % of control under setting [4]; 123 % of control and 98 % of control under setting [5]; 97 % of control and 100 % of control under setting [6]. Further, the T/C by setting is: under setting [7], 123 % of control and 100 % of control; under setting [8], 116 % of control and 91 % of control; under setting [9], 120 % of control and 102 % of control; under setting [10], 95 % of control and 106 % of control; under setting [16], 114 % of control and 94 % of control; under setting [11], 100 % of control and 109 % of control. The T/C is 111 % of control under setting [17]; 91 % of control and 106 % of control (dose: 512.0 mg/kg/injection, schedule: Q01DX009 (ip), vehicle: saline with Tween-80).
As for `CCC1=C(c2ccc(OC)cc2)CCC(C(=O)O)C1C` (stereo not drawn), the T/C is, setting by setting: (dose: 4.0 mg/kg/injection, schedule: Q01DX005 (ip), vehicle: saline) 99 % of control and 104 % of control; (dose: 8.0 mg/kg/injection, schedule: Q01DX005 (ip), vehicle: saline) 95 % of control and 100 % of control; under setting [12], 90 % of control and 98 % of control; under setting [13], 96 % of control and 102 % of control.
